In US7838498B2, “Benzylic glycoside derivatives and methods of use” (Theracos, Inc., priority 2007, dated 2010):

Columns and labels:
human SGLT2 = molecular target: T1, human SGLT2 (Homo sapiens, UniProt P31639); test: Methyl-α-D-[U-14C]glucopyranoside uptake assay, cells stably expressing human SGLT2; assay type: cell-based; details: HEK293.ETN cells expressing human SGLT2, 1.5 h incubation
T1 construct: A full-length cDNA clone expressing human SGLT2 (GenScript Corporation) was subcloned
T1 sequence (P31639 1-672): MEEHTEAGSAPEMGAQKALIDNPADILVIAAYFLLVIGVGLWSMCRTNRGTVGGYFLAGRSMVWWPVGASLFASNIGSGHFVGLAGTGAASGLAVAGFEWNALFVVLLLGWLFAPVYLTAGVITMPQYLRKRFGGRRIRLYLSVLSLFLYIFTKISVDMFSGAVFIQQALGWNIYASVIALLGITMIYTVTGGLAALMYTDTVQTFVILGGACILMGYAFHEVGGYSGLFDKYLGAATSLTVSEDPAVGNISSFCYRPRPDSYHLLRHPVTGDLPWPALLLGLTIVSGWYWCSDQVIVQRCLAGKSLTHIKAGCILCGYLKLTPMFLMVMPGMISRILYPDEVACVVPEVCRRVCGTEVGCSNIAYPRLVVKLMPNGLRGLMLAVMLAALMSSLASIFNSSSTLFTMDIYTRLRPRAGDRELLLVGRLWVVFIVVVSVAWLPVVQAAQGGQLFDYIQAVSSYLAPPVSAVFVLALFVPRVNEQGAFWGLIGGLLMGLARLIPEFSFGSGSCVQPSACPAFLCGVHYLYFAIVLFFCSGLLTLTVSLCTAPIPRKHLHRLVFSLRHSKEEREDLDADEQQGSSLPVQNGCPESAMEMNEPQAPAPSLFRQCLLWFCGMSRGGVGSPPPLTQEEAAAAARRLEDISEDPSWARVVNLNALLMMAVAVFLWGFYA
From the text: A full-length cDNA clone expressing human SGLT2 (GenScript Corporation) was subcloned into […] and Not I sites of pEAK15 expression vector. Clones harboring the cDNA inserts were identified by restriction analysis.
Plasmid containing human SGLT2 was linearized with Nsi I and purified by agarose gel electrophoresis. Using Lipofectamine 2000 Transfection Reagent (Invitrogen Corporation), DNA was transfected into HEK293.ETN cells and cultured in Dulbecco's Modified Eagle Medium (DMEM) containing 10% fetal bovine serum (FBS) at 37° C. under 5% CO2 for 24 h. Transfectants were selected in the same growth medium supplemented with puromycin (Invitrogen Corporation) for two weeks. Puromycin-resistant cells were recovered and seeded on a fresh 96-well plate (single cell per well) and cultured in the presence of puromycin until cells became confluent. Puromycin-resistant clones were evaluated for SGLT2 activity in the methyl-α-D-[U-^14C]glucopyranoside uptake assay described below.
(§1) Cells expressing SGLT1 or SGLT2 were seeded on 96-well ScintiPlate scintillating plates (PerkinElmer, Inc.) in DMEM containing 10% FBS (1×10^5 cells per well in 100 μL medium) incubated at 37° C. under 5% CO2 for 48 h prior to the assay. Cells were washed twice with 150 μL of either sodium buffer (137 mM NaCl, 5.4 mM KCl, 2.8 mM CaCl2, 1.2 mM MgCl2, 10 mM tris(hydroxymethyl)aminomethane/N2-hydroxyethylpiperazine-N′-ethanesulfonic acid [Tris/Hepes], pH 7.2) or sodium-free buffer (137 mM N-methyl-glucamine, 5.4 mM KCl, 2.8 mM CaCl2, 1.2 mM MgCl2, 10 mM Tris/Hepes, pH 7.2). Test compound in 50 μL each of sodium or sodium-free buffer containing 40 μCi/L methyl-α-D-[U-^14C]glucopyranoside (Amersham Biosciences/GE Healthcare), either with (symbols in parentheses) or without (symbols without parentheses) 25% human serum, was added per well of a 96-well plate and incubated at 37° C. with shaking for either 2 h (SGLT1 assay) or 1.5 h (SGLT2 assay). Cells were washed twice with 150 μL of wash buffer (137 mM N-methylglucamine, 10 mM Tris/Hepes, pH 7.2) and methyl-α-D-[U-^14C]glucopyranoside uptake was quantitated using a TopCount scintillation counter (PerkinElmer, Inc.). Sodium-dependent glucopyranoside uptake was measured by subtracting the values obtained with sodium-free buffer from those obtained using sodium buffer (average of triplicate determinations).

human SGLT1 = molecular target: T2, human SGLT1 (Homo sapiens, UniProt P13866); test: Methyl-α-D-[U-14C]glucopyranoside uptake assay, COS-7 cells expressing human SGLT1; assay type: cell-based; details: COS-7 cells expressing human SGLT1, 2 h incubation
T2 construct: Full-length human SGLT1 cDNA on pDream2.1 expression vector was obtained from GenScript Corporation; host or cells: COS-7 cells (American Type Culture Collection)
T2 sequence (P13866 1-664): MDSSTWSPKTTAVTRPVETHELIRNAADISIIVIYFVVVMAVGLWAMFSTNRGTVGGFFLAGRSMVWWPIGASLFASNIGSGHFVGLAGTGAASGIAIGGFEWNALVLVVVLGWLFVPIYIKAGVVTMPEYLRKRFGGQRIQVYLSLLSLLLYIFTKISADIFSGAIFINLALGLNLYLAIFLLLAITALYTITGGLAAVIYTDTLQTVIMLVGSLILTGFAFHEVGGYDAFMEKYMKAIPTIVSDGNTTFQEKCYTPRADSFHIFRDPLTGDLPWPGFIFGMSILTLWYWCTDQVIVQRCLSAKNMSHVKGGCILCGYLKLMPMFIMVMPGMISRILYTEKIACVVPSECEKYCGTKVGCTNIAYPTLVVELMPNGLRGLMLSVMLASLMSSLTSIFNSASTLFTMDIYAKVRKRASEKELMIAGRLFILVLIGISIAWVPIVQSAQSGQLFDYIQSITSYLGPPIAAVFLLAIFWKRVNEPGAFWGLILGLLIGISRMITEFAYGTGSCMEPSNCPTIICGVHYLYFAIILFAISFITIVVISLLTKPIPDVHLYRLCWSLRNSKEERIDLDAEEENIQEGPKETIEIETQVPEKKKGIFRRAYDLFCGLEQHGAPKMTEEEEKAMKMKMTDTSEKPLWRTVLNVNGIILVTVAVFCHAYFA
Method: Full-length human SGLT1 cDNA on pDream2.1 expression vector was obtained from GenScript Corporation and propagated in Escherichia coli strain DH5α using Luria-Bertani (LB) medium containing ampicillin. Plasmid DNA was isolated using the QIAGEN Plasmid Midi Kit (QIAGEN Inc.). […] Transfected cells were stored in DMEM containing 10% dimethyl sulfoxide (DMSO) at −80° C.
as §1

[1] = without human serum (symbols without parentheses)
[2] = with 25% human serum (symbols in parentheses)

| Compound | IC50 (human SGLT2; [1]) [nM] | IC50 (human SGLT1; [1]) [nM] | IC50 (human SGLT2; [2]) [nM] | IC50 (human SGLT1; [2]) [nM] |
| --- | --- | --- | --- | --- |
| C=CCOCCc1cc(Cl)c(Cc2ccc(CC)cc2)cc1[C@@H]1O[C@H](CO)[C@@H](O)[C@H](O)[C@H]1O [Compound AD, (2S,3R,4R,5S,6R)-2-(2-(2-(allyloxy)ethyl)-4-chloro-5-(4-ethylbenzyl)phenyl)-6-(hydroxymethyl)tetrahydro-2H-pyran-3,4,5-triol] | < 1000 | > 10000 | – | – |
| CCc1ccc(Cc2cc([C@@H]3O[C@H](CO)[C@@H](O)[C@H](O)[C@H]3O)c(CCOCCO)cc2Cl)cc1 [Compound AG, (2S,3R,4R,5S,6R)-2-(4-chloro-5-(4-ethylbenzyl)-2-(2-(2-hydroxyethoxy)ethyl)phenyl)-6-(hydroxymethyl)tetrahydro-2H-pyran-3,4,5-triol] | < 1000 | 1000 to 10000 | – | – |
| CCc1ccc(Cc2cc([C@@H]3O[C@H](CO)[C@@H](O)[C@H](O)[C@H]3O)c(CCOCCF)cc2Cl)cc1 [Compound AH, (2S,3R,4R,5S,6R)-2-(4-chloro-5-(4-ethylbenzyl)-2-(2-(2-fluoroethoxy)ethyl)phenyl)-6-(hydroxymethyl)tetrahydro-2H-pyran-3,4,5-triol] | < 1000 | 1000 to 10000 | – | – |
| CCc1ccc(Cc2cc([C@@H]3O[C@H](CO)[C@@H](O)[C@H](O)[C@H]3O)c(CCOCC(F)F)cc2Cl)cc1 [Compound AI, (2S,3R,4R,5S,6R)-2-(4-chloro-2-(2-(2,2-difluoroethoxy)ethyl)-5-(4-ethylbenzyl)phenyl)-6-(hydroxymethyl)tetrahydro-2H-pyran-3,4,5-triol] | < 1000 | > 10000 | – | – |
| CCc1ccc(Cc2cc([C@@H]3O[C@H](CO)[C@@H](O)[C@H](O)[C@H]3O)c(CCOCC(F)(F)F)cc2Cl)cc1 [Compound AK, (2S,3R,4R,5S,6R)-2-(4-chloro-5-(4-ethylbenzyl)-2-(2-(2,2,2-trifluoroethoxy)ethyl)phenyl)-6-(hydroxymethyl)tetrahydro-2H-pyran-3,4,5-triol] | < 1000 | > 10000 | – | – |
| CCc1ccc(Cc2cc([C@@H]3O[C@H](CO)[C@@H](O)[C@H](O)[C@H]3O)c(COCCCO)cc2Cl)cc1 [Compound AL, (2S,3R,4R,5S,6R)-2-(4-chloro-5-(4-ethylbenzyl)-2-((3-hydroxypropoxy)methyl)phenyl)-6-(hydroxymethyl)tetrahydro-2H-pyran-3,4,5-triol] | < 1000 | > 10000 | – | – |
| C#CCOCCc1cc(Cl)c(Cc2ccc(CC)cc2)cc1[C@@H]1O[C@H](CO)[C@@H](O)[C@H](O)[C@H]1O [Compound AM, (2S,3R,4R,5S,6R)-2-(4-chloro-5-(4-ethylbenzyl)-2-(2-(prop-2-ynyloxy)ethyl)phenyl)-6-(hydroxymethyl)tetrahydro-2H-pyran-3,4,5-triol] | < 1000 | > 10000 | – | – |
| CC#CCOCCc1cc(Cl)c(Cc2ccc(CC)cc2)cc1[C@@H]1O[C@H](CO)[C@@H](O)[C@H](O)[C@H]1O [Compound AN, (2S,3R,4R,5S,6R)-2-(2-(2-(but-2-ynyloxy)ethyl)-4-chloro-5-(4-ethylbenzyl)phenyl)-6-(hydroxymethyl)tetrahydro-2H-pyran-3,4,5-triol] | < 1000 | 1000 to 10000 | – | – |
| C#CCOCCc1cc(Cl)c(Cc2ccc(OCC)cc2)cc1[C@@H]1O[C@H](CO)[C@@H](O)[C@H](O)[C@H]1O [Compound AO, (2S,3R,4R,5S,6R)-2-(4-chloro-5-(4-ethoxybenzyl)-2-(2-(prop-2-ynyloxy)ethyl)phenyl)-6-(hydroxymethyl)tetrahydro-2H-pyran-3,4,5-triol] | < 1000 | > 10000 | – | – |
| C=CCOCCOc1cc(Cl)c(Cc2ccc(CC)cc2)cc1[C@@H]1O[C@H](CO)[C@@H](O)[C@H](O)[C@H]1O [Compound AW, (2S,3R,4R,5S,6R)-2-(2-(2-(allyloxy)ethoxy)-4-chloro-5-(4-ethylbenzyl)phenyl)-6-(hydroxymethyl)tetrahydro-2H-pyran-3,4,5-triol] | < 1000 | > 10000 | – | – |
| CC#CCOCc1cc(Cl)c(Cc2ccc(CC)cc2)cc1[C@@H]1O[C@H](CO)[C@@H](O)[C@H](O)[C@H]1O [Compound AX, (2S,3R,4R,5S,6R)-2-(2-((but-2-ynyloxy)methyl)-4-chloro-5-(4-ethylbenzyl)phenyl)-6-(hydroxymethyl)tetrahydro-2H-pyran-3,4,5-triol] | – | – | < 1000 | > 10000 |
| CC#CCOCc1cc(Cl)c(Cc2ccc(OCC)cc2)cc1[C@@H]1O[C@H](CO)[C@@H](O)[C@H](O)[C@H]1O [Compound AY, (2S,3R,4R,5S,6R)-2-(2-((but-2-ynyloxy)methyl)-4-chloro-5-(4-ethoxybenzyl)phenyl)-6-(hydroxymethyl)tetrahydro-2H-pyran-3,4,5-triol] | < 1000 | > 10000 | – | – |
| C=CCOCc1cc(Cl)c(Cc2ccc(OCC)cc2)cc1[C@@H]1O[C@H](CO)[C@@H](O)[C@H](O)[C@H]1O [Compound AZ, (2S,3R,4R,5S,6R)-2-(2-(allyloxymethyl)-4-chloro-5-(4-ethoxybenzyl)phenyl)-6-(hydroxymethyl)tetrahydro-2H-pyran-3,4,5-triol] | < 1000 | > 10000 | – | – |
| CC#CCOCc1cc(Cl)c(Cc2ccc(OC)cc2)cc1[C@@H]1O[C@H](CO)[C@@H](O)[C@H](O)[C@H]1O [Compound BA, (2S,3R,4R,5S,6R)-2-(2-((but-2-ynyloxy)methyl)-4-chloro-5-(4-methoxybenzyl)phenyl)-6-(hydroxymethyl)tetrahydro-2H-pyran-3,4,5-triol] | – | – | < 1000 | > 10000 |
| C=CCOCc1cc(Cl)c(Cc2ccc(OCC=C)cc2)cc1[C@@H]1O[C@H](CO)[C@@H](O)[C@H](O)[C@H]1O [Compound BB, (2S,3R,4R,5S,6R)-2-(5-(4-(allyloxy)benzyl)-2-(allyloxymethyl)-4-chlorophenyl)-6-(hydroxymethyl)tetrahydro-2H-pyran-3,4,5-triol] | – | – | < 1000 | > 10000 |
